Laboratory results from article PMC4550478, “Metronidazole-triazole conjugates: Activity against Clostridium difficile and parasites” (European Journal of Medicinal Chemistry, 2015).
≈ marks a conversion by molar mass, not a printed value. Like-named read-outs stand apart in the source and are kept apart here.

Key:
[1] = tested on: G. lamblia BRIS/87/HEPU/713 (713); experiment: ATP-bioluminescence growth and survival assay, G. lamblia 713; type: cell-based; conditions: Giardia duodenalis, read-out: EC50 G. lamblia 713
Protocol: (§1) Compounds were tested for antiparasitic activity against E. histolytica (HM1:1MSS strain) and G. lamblia (WB, BRIS/87/HEPU/713 (713), BRIS/83/HEPU/106 (106) and the metronidazole resistant syngeneic line 713-M3 [[15,16]]) using an ATP-bioluminescence based screen for cell growth and survival [[17,18]]. Assay plates were inoculated with trophozoites (5 × 10^3 parasites/well) and incubated in the GasPak™ EZ Anaerobe Gas Generating Pouch Systems (VWR, West Chester, PA) to maintain anaerobic conditions throughout the incubation period. The assays were performed in triplicate using the CellTiter-Glo Luminescent Cell Viability Assay. Metronidazole was used as a positive control.
(§2) Trophozoites of E. histolytica strain HM1:IMSS and G. lamblia strains WB, BRIS/87/HEPU/713 (713),^10 BRIS/83/HEPU/106 (106)^11 and the metronidazole resistant syngenic line 713-M3^10,11 were axenically maintained in TYI-S-33 medium supplemented with penicillin (100 U/ml), streptomycin (100 µg/ml).^12 E. histolytica and G. lamblia trophozoites were counted using a particle counter (Beckman Coulter, Fullerton, CA). All experiments were performed using trophozoites harvested during the logarithmic phase of growth.
(§3) A three-fold serial dilution was then performed yielding a concentration range 0.25-625 µM. From this dilution plate, 4 µL were transferred into the 96-well screen plates followed by addition of 96 µL of trophozoites (5,000 parasites) to yield a final 8-point concentration range spanning 0.01- 25 µM. Assay plates were incubated for 48 h at 37 °C in the GasPak^TM EZ Anaerobe Gas Generating Pouch Systems (VWR, West Chester, PA) to maintain anaerobic condition throughout the incubation period. The assays were performed in triplicate using the CellTiter-Glo Luminescent Cell Viability Assay.^13

[2] = tested on: G. lamblia BRIS/83/HEPU/106 (106); experiment: ATP-bioluminescence growth and survival assay, G. lamblia 106; type: cell-based; conditions: Giardia duodenalis, read-out: EC50 G. lamblia 106
Protocol: as §1, §2, §3

[3] = tested on: E. histolytica HM1:IMSS trophozoites; experiment: ATP-bioluminescence growth and survival assay, E. histolytica; type: cell-based, Entamoeba histolytica; conditions: Entamoeba histolytica; MtzS, 48 h, anaerobic, n = 3
Protocol: as §1, §2, §3

[4] = tested on: C. difficile NAP1/027 M7404; experiment: MIC broth microdilution, C. difficile NAP1/027 M7404; type: cell-based, Clostridium difficile; conditions: Clostridioides difficile, NAP1/027M7404; NAP1/027 (footnote d: M7404), MtzS, 24 h, median of at least n = 4
Protocol: All compounds were tested for activity against a set of anaerobic C. difficile bacteria (630 ATCC BAA-1382, NAP1/027 M7404, NAP1/027 ATCC BAA-1803, VPI10463 ATCC 43255, CD26A54_S and CD26A54_R) and representative ESKAPE pathogens S. aureus (MRSA ATCC 43300), E. coli (ATCC 25922), K. pneumoniae (ATCC 700603), A. baumannii (ATCC 19606) and P. aeruginosa (ATCC 27853) using a standard broth microdilution assay. Selected compounds were tested for activity against H. pylori strains (26695, and clinical isolates MtzS 13/25, MtzR 98/285 and MtzR 13/61) using agar plate dilution, and for antimicrobial activity against […] Gram-positive bacterial strains: Enterococcus faecalis (VanA clinical isolate), Enterococcus faecium (MDR VanA ATCC 51559), Streptococcus pneumoniae (MDR ATCC 700677), S. aureus (MRSA ATCC 43300, MRSA clinical isolate, MRSA/DRSA clinical isolate, GISA NARSA NRS 1, GISA NARSA NRS 17, VRSA NARSA VRS1, VRSA NARSA VRS4 and VRSA NARSA VRS10) using broth microdilution. C. difficile strains were grown at 37 °C in a COY anaerobic chamber (5% H2, 10% CO2, 85% N2). H. pylori strains were grown at 37 °C under a microaerobic atmosphere (5% O2, 10% CO2). All facultative anaerobic bacteria were grown at 37 °C with normal atmospheric oxygen levels. All experiments were performed in duplicate with metronidazole, vancomycin, linezolid or colistin as positive controls for relevant strains (see Table 1). Positive growth control of bacteria and DMSO as well as a negative control of only media were included for every plate. Full assay details are provided in the supplementary information.
C. difficile ATCC BAA-1382, ATCC BAA-1803, ATCC 43255 and M7404 heat shocked spore stocks (10 µL) were transferred into the anaerobic chamber and 10 µL streaked onto pre-reduced (at least 2.5 hr in anaerobic chamber) BHIS agar plates supplemented with 0.1% w/v sodium taurocholate (BHIS(TA)). Plates were incubated for 24 hours prior to assay to give colonies of size 1-3mm diameter with characteristic uneven borders.
The minimum inhibition concentration was determined according to the CLSI Methods with modifications in broth and inoculum for C. difficile according to Babakhani et al.^7,8 Briefly, compounds were prepared to 20X final concentration in 100% water, 60% DMSO and 40% water or 60% DMSO and 40% media. The compounds along with standard antibiotics were serially diluted two-fold across the wells of 96-well non-binding surface plates (Non binding surface, Corning). The plates were placed in the anaerobic chamber overnight to reduce. C. difficile bacteria from BHIS(TA) agar plates were cultured anaerobically in BHIS at 37 °C overnight. A sample of culture was then diluted 40-fold in BHIS broth and incubated at 37 °C for approximately 4.5 hrs. The resultant mid-log phase culture (OD600= 0.5-0.6) was diluted to the final concentration of ~1×10^6 CFU/mL, then 50 µL was added to each well of the compound-containing 96-well plates. This gave final cell concentration of 5×10^5 CFU/mL, final volume 100 µL and 3% maximum DMSO concentration. Compound concentration was typically from 64 to 0.03 µg/mL. An antibiotic standard was included on each 96 well plate as well as a positive growth control (no compound) and sterility control (no bacteria). All the plates were covered and incubated at 37 °C for 24 h. MICs were the lowest concentration showing no visible growth.

[5] = tested on: G. lamblia BRIS/83/HEPU/106 (106); set-up: method as in earlier work; conditions: MtzS, crude Mtz-triazoles (>85% purity), ref 15 (Miyamoto et al.); read-out: EC50 G. lamblia 106, Lit.; cited from earlier work
[6] = tested on: G. lamblia WB trophozoites; experiment: ATP-bioluminescence growth and survival assay, G. lamblia WB; type: cell-based, Giardia lamblia; conditions: Giardia duodenalis; MtzS, 48 h, anaerobic, n = 3
Protocol: as §1, §2, §3

Row | Structure (SMILES) | EC50 [1] | EC50 [2] | EC50 [3] | MIC [4] | EC50 [5] | EC50 [6]
1 | Cc1ncc([N+](=O)[O-])n1CCn1cc(-c2ccccn2)nn1 [Compound 4h, 1-(2-(2-methyl-5-nitro-1H-imidazol-1-yl)ethyl)-4-(2-pyridinyl)-1H-1,2,3-triazole.xTFA] | 280 nM | 380 nM | 4600 nM | 0.5 µg/mL | 560 nM | 740 nM
2 | Cc1ncc([N+](=O)[O-])n1CCn1cc(Cc2ccccc2)nn1 [Compound 4k, 1-(2-(2-methyl-5-nitro-1H-imidazol-1-yl)ethyl)-4-benzyl-1H-1,2,3-triazole] | 320 nM | 510 nM | 1900 nM | 0.5 µg/mL (≈ 1.6 µM) | 710 nM | 700 nM
3 | Cc1ncc([N+](=O)[O-])n1CCn1cc(CN(C)Cc2ccccc2)nn1 [Compound 4m, 1-(2-(2-methyl-5-nitro-1H-imidazol-1-yl)ethyl)-4-(N-benzyl, N-methylaminomethyl)-1H-1,2,3-triazole] | 710 nM | 1100 nM | 4600 nM | 2 µg/mL (≈ 5.63 µM) | 300 nM | 1600 nM
4 | Cc1ncc([N+](=O)[O-])n1CCn1cc(-c2ccsc2)nn1 [Compound 4n, 1-(2-(2-methyl-5-nitro-1H-imidazol-1-yl)ethyl)-4-(thiophen-3-yl)-1H-1,2,3-triazole] | 180 nM | 340 nM | 3800 nM | 0.5 µg/mL (≈ 1.64 µM) | 340 nM | 370 nM
